Patent US12123010B2, “Plants having increased tolerance to herbicides” (BASF SE, priority 2017, dated 2024)

System: Transgenic T2 Corn plants harbouring PPO inhibitor tolerance trait and J553 non transgenic
Assay: Corn Trial, post spray, injury score 14 DAT
Format: in vivo
Description: Immature embryos are transformed according to the procedure outlined in Peng et al. (WO2006/136596). Plants are tested for the presence of the T-DNA by Taqman analysis with the target being the nos terminator which is present in all constructs. Healthy looking plants are sent to the greenhouse for hardening and subsequent spray testing. The plants are individually transplanted into MetroMix 360 soil in 4″ pots. Once in the greenhouse (day/night cycle of 27° C./21° C. with 14 hour day length supported by 600 W high pressure sodium lights), they are allowed to grow for 14 days. TO or T1 plants are sprayed with a treatment of the uracilpyridines as disclosed SUPRA and photosynthesis inhibitor diuron as negative control. Herbicide injury evaluations are taken at 7, 14 and 21 days after treatment. Herbicide injury evaluations are taken 2, 7, 14 and 21 days post-spray to look for injury to new growth points and overall plant health. The top survivors are transplanted into gallon pots filled with MetroMix 360 for seed production.
Transgenic T2 Corn plants harbouring PPO inhibitor tolerance trait, were sprayed post with the indicated amount of uracilpyridine+1% (v/v) MSO. Evaluation performed 14 Days After Treatment (DAT) and shown as injury (0-9) relative to non-transgenic treated plants.
Injury Scale: 0-9, 0=no injury, 9=maximum injury. Note: segregating lines.

CCOC(=O)COc1ccccc1Oc1nc(-n2c(=O)cc(C(F)(F)F)n(C)c2=O)c(F)cc1Cl [Uracilpyridine 4, ethyl 2-[2-[[3-chloro-5-fluoro-6-[3-methyl-2,6-dioxo-4-(trifluoromethyl)pyrimidin-1-yl]-2-pyridyl]oxy]phenoxy]acetate] was tested, and the “injury (0-9)” value (25 g/ha + 1% MSO) was 7 and the “injury (0-9)” value (50 g/ha + 1% MSO) was 7.
